Test results taken from patent publication US4033721A, “Analysis of gentian violet residue in tissue” (priority 1976, dated 1977).
Several values for one entry are separate records, joined by “and”; a condition that tells them apart may be missing. Identical values can stand only once.

Experiment: Residual 14C-gentian violet in tissues of cockerels after repeated oral administration (Example 26)
Details: for 14C dpm/Organ / 14C dpm/gram / ug/gram (ppm) in organ: individual bird; for Mean tissue residue: oral; for Mean tissue residue, mean of two values without the sport: 2.5 mg/kg

CN(C)c1ccc(C(=C2C=CC(=[N+](C)C)C=C2)c2ccc(N(C)C)cc2)cc1 [^14 C-gentian violet]
Residue 72 hrs. post-dose (breast muscle): 0.012 ppm
Residue 72 hrs. post-dose (gizzard muscle): 0.002 ppm
Residue 72 hrs. post-dose (heart muscle): 0.007 ppm
14C dpm/Organ (kidneys, 1X dose, 4 hours): 2,863 dpm/Organ and 4,271 dpm/Organ and 2,272 dpm/Organ
14C dpm/gram (kidneys, 1X dose, 4 hours): 1,184 dpm/gram and 1,634 dpm/gram and 1,269 dpm/gram
ug/gram (ppm) in organ (kidneys, 1X dose, 4 hours, 240 min): 0.089 ppm and 0.123 ppm and 0.095 ppm
14C dpm/Organ (kidneys, 1X dose, 12 hours): 1,746 dpm/Organ and 1,696 dpm/Organ and 3,452 dpm/Organ
14C dpm/gram (kidneys, 1X dose, 12 hours): 820 dpm/gram and 764 dpm/gram and 1,561 dpm/gram
ug/gram (ppm) in organ (kidneys, 1X dose, 12 hours, 720 min): 0.062 ppm and 0.057 ppm and 0.117 ppm
14C dpm/Organ (kidneys, 1X dose, 24 hours): 2,705 dpm/Organ and 1,481 dpm/Organ and 1,644 dpm/Organ
14C dpm/gram (kidneys, 1X dose, 24 hours): 1,463 dpm/gram and 639 dpm/gram and 561 dpm/gram
ug/gram (ppm) in organ (kidneys, 1X dose, 24 hours, 1440 min): 0.110 ppm and 0.048 ppm and 0.042 ppm
14C dpm/Organ (kidneys, 1X dose, 48 hours): 1,186 dpm/Organ and 863 dpm/Organ
14C dpm/gram (kidneys, 1X dose, 48 hours): 511 dpm/gram and 527 dpm/gram
ug/gram (ppm) in organ (kidneys, 1X dose, 48 hours, 2880 min): 0.038 ppm and 0.040 ppm
14C dpm/Organ (kidneys, 1X dose, 72 hours): 972 dpm/Organ and 759 dpm/Organ
14C dpm/gram (kidneys, 1X dose, 72 hours): 333 dpm/gram and 289 dpm/gram
ug/gram (ppm) in organ (kidneys, 1X dose, 72 hours, 4320 min): 0.025 ppm and 0.022 ppm
14C dpm/Organ (kidneys, 5X dose, 4 hours): 11,116 dpm/Organ and 9,227 dpm/Organ and 8.867 dpm/Organ and 12,505 dpm/Organ
14C dpm/gram (kidneys, 5X dose, 4 hours): 9,183 dpm/gram and 4,798 dpm/gram and 4,729 dpm/gram and 6,658 dpm/gram
ug/gram (ppm) in organ (kidneys, 5X dose, 4 hours, 240 min): 0.691 ppm and 0.361 ppm and 0.356 ppm and 0.501 ppm
14C dpm/Organ (kidneys, 5X dose, 12 hours): 11,939 dpm/Organ and 6,796 dpm/Organ and 6,537 dpm/Organ and 5,712 dpm/Organ and 7,815 dpm/Organ
14C dpm/gram (kidneys, 5X dose, 12 hours): 5,250 dpm/gram and 3,258 dpm/gram and 3,060 dpm/gram and 2,334 dpm/gram and 3,855 dpm/gram
ug/gram (ppm) in organ (kidneys, 5X dose, 12 hours, 720 min): 0.395 ppm and 0.245 ppm and 0.230 ppm and 0.176 ppm and 0.290 ppm
14C dpm/Organ (kidneys, 5X dose, 24 hours): 6,185 dpm/Organ and 6,443 dpm/Organ and 7,315 dpm/Organ and 3,623 dpm/Organ
14C dpm/gram (kidneys, 5X dose, 24 hours): 3,002 dpm/gram and 2,961 dpm/gram and 3,751 dpm/gram and 1,463 dpm/gram
ug/gram (ppm) in organ (kidneys, 5X dose, 24 hours, 1440 min): 0.226 ppm and 0.223 ppm and 0.282 ppm and 0.110 ppm
14C dpm/Organ (kidneys, 5X dose, 48 hours): 2,197 dpm/Organ and 3,750 dpm/Organ and 2,882 dpm/Organ
14C dpm/gram (kidneys, 5X dose, 48 hours): 982 dpm/gram and 1,647 dpm/gram and 1,508 dpm/gram
ug/gram (ppm) in organ (kidneys, 5X dose, 48 hours, 2880 min): 0.074 ppm and 0.124 ppm and 0.113 ppm
14C dpm/Organ (kidneys, 5X dose, 72 hours): 4,998 dpm/Organ and 1,843 dpm/Organ and 1,792 dpm/Organ
14C dpm/gram (kidneys, 5X dose, 72 hours): 4,044 dpm/gram and 844 dpm/gram and 1,042 dpm/gram
ug/gram (ppm) in organ (kidneys, 5X dose, 72 hours, 4320 min): 0.304 ppm and 0.067 ppm and 0.078 ppm
14C dpm/Organ (liver, 1X dose, 4 hours): 21,804 dpm/Organ and 36,280 dpm/Organ and 16,323 dpm/Organ
14C dpm/gram (liver, 1X dose, 4 hours): 3,084 dpm/gram and 5,753 dpm/gram and 2,493 dpm/gram
ug/gram (ppm) in organ (liver, 1X dose, 4 hours, 240 min): 0.232 ppm and 0.433 ppm and 0.188 ppm
14C dpm/Organ (liver, 1X dose, 12 hours): 5,477 dpm/Organ and 5,889 dpm/Organ and 19,188 dpm/Organ
14C dpm/gram (liver, 1X dose, 12 hours): 996 dpm/gram and 927 dpm/gram and 2,857 dpm/gram
ug/gram (ppm) in organ (liver, 1X dose, 12 hours, 720 min): 0.075 ppm and 0.070 ppm and 0.215 ppm
14C dpm/Organ (liver, 1X dose, 24 hours): 14,586 dpm/Organ and 5,165 dpm/Organ and 7,248 dpm/Organ
14C dpm/gram (liver, 1X dose, 24 hours): 2,890 dpm/gram and 830 dpm/gram and 851 dpm/gram
ug/gram (ppm) in organ (liver, 1X dose, 24 hours, 1440 min): 0.217 ppm and 0.062 ppm and 0.064 ppm
14C dpm/Organ (liver, 1X dose, 48 hours): 8,396 dpm/Organ and 6,073 dpm/Organ
14C dpm/gram (liver, 1X dose, 48 hours): 1,419 dpm/gram and 1,292 dpm/gram
ug/gram (ppm) in organ (liver, 1X dose, 48 hours, 2880 min): 0.107 ppm and 0.097 ppm
14C dpm/Organ (liver, 1X dose, 72 hours): 7,261 dpm/Organ and 3,744 dpm/Organ
14C dpm/gram (liver, 1X dose, 72 hours): 546 dpm/gram and 361 dpm/gram
ug/gram (ppm) in organ (liver, 1X dose, 72 hours, 4320 min): 0.041 ppm and 0.027 ppm
14C dpm/Organ (liver, 5X dose, 4 hours): 44,618 dpm/Organ and 50,607 dpm/Organ and 42,844 dpm/Organ and 46,652 dpm/Organ
14C dpm/gram (liver, 5X dose, 4 hours): 13,878 dpm/gram and 9,859 dpm/gram and 8,038 dpm/gram and 9,651 dpm/gram
ug/gram (ppm) in organ (liver, 5X dose, 4 hours, 240 min): 1.044 ppm and 0.742 ppm and 0.605 ppm and 0.726 ppm
14C dpm/Organ (liver, 5X dose, 12 hours): 66,438 dpm/Organ and 24,948 dpm/Organ and 17,753 dpm/Organ and 26,299 dpm/Organ and 68,033 dpm/Organ
14C dpm/gram (liver, 5X dose, 12 hours): 11,801 dpm/gram and 4,135 dpm/gram and 3,201 dpm/gram and 3,772 dpm/gram and 10,291 dpm/gram
ug/gram (ppm) in organ (liver, 5X dose, 12 hours, 720 min): 0.888 ppm and 0.311 ppm and 0.241 ppm and 0.284 ppm and 0.774 ppm
14C dpm/Organ (liver, 5X dose, 24 hours): 60,300 dpm/Organ and 67,384 dpm/Organ and 68,033 dpm/Organ and 20,674 dpm/Organ
14C dpm/gram (liver, 5X dose, 24 hours): 9.588 dpm/gram and 10,942 dpm/gram and 12,714 dpm/gram and 2,845 dpm/gram
ug/gram (ppm) in organ (liver, 5X dose, 24 hours, 1440 min): 0.721 ppm and 0.823 ppm and 0.957 ppm and 0.215 ppm
14C dpm/Organ (liver, 5X dose, 48 hours): 15,334 dpm/Organ and 27,176 dpm/Organ and 13,617 dpm/Organ
14C dpm/gram (liver, 5X dose, 48 hours): 2,649 dpm/gram and 5,220 dpm/gram and 3,102 dpm/gram
ug/gram (ppm) in organ (liver, 5X dose, 48 hours, 2880 min): 0.199 ppm and 0.393 ppm and 0.233 ppm
14C dpm/Organ (liver, 5X dose, 72 hours): 45,587 dpm/Organ and 10,991 dpm/Organ and 13,245 dpm/Organ
14C dpm/gram (liver, 5X dose, 72 hours): 21,927 dpm/gram and 2,447 dpm/gram and 2,991 dpm/gram
ug/gram (ppm) in organ (liver, 5X dose, 72 hours, 4320 min): 1.650 ppm and 0.184 ppm and 0.225 ppm
Residue 72 hrs. post-dose (kidney): 0.024 ppm
Elimination Rate Constant (Ke) (kidneys, 1X dose): -0.0209 h⁻¹
Mean tissue residue (kidneys, 1X dose (0.5 mg/kg), 4 hrs. post-dose): 0.102 ppm
Mean tissue residue (kidneys, 1X dose (0.5 mg/kg), 12 hrs. post-dose): 0.079 ppm
Mean tissue residue (kidneys, 1X dose (0.5 mg/kg), 24 hrs. post-dose): 0.067 ppm
Mean tissue residue (kidneys, 1X dose (0.5 mg/kg), 48 hrs. post-dose): 0.039 ppm
Mean tissue residue (kidneys, 1X dose (0.5 mg/kg), 72 hrs. post-dose): 0.024 ppm
Elimination Rate Constant (Ke) (kidneys, 5X dose): -0.0262 h⁻¹
Half-Life (t1/2) (kidneys, 5X dose): 26.7 h
Mean tissue residue (kidneys, 5X dose (2.5 mg/kg), 4 hrs. post-dose): 0.477 ppm
Mean tissue residue (kidneys, 5X dose (2.5 mg/kg), 12 hrs. post-dose): 0.267 ppm
Mean tissue residue (kidneys, 5X dose (2.5 mg/kg), 24 hrs. post-dose): 0.210 ppm
Mean tissue residue (kidneys, 5X dose (2.5 mg/kg), 48 hrs. post-dose): 0.104 ppm
Mean tissue residue (kidneys, 5X dose (2.5 mg/kg), 72 hrs. post-dose, includes a sport, high value among three): 0.150 ppm
Mean tissue residue, mean of two values without the sport (kidneys, 5X dose, 72 hrs. post-dose): 0.073 ppm
Residue 72 hrs. post-dose (liver): 0.034 ppm
Mean tissue residue (liver, 1X dose (0.5 mg/kg), 4 hrs. post-dose): 0.284 ppm
Mean tissue residue (liver, 1X dose (0.5 mg/kg), 12 hrs. post-dose): 0.120 ppm
Mean tissue residue (liver, 1X dose (0.5 mg/kg), 24 hrs. post-dose): 0.114 ppm
Mean tissue residue (liver, 1X dose (0.5 mg/kg), 48 hrs. post-dose): 0.102 ppm
Mean tissue residue (liver, 1X dose (0.5 mg/kg), 72 hrs. post-dose): 0.034 ppm
Mean tissue residue (liver, 5X dose (2.5 mg/kg), 4 hrs. post-dose): 0.779 ppm
Mean tissue residue (liver, 5X dose (2.5 mg/kg), 12 hrs. post-dose): 0.500 ppm
Mean tissue residue (liver, 5X dose (2.5 mg/kg), 24 hrs. post-dose): 0.679 ppm
Mean tissue residue (liver, 5X dose (2.5 mg/kg), 48 hrs. post-dose): 0.275 ppm
Mean tissue residue (liver, 5X dose (2.5 mg/kg), 72 hrs. post-dose, includes a sport, high value among three): 0.686 ppm
Mean tissue residue, mean of two values without the sport (liver, 5X dose, 72 hrs. post-dose): 0.205 ppm
Elimination Rate Constant (Ke) (livers, 1X dose): -0.0247 h⁻¹
Half-Life (t1/2) (livers, 1X dose): 28.0 h
Elimination Rate Constant (Ke) (livers, 5X dose): -0.0193 h⁻¹
Half-Life (t1/2) (livers, 5X dose): 35.9 h
Residue 72 hrs. post-dose (skin/fat): 0.016 ppm
Residue 72 hrs. post-dose (thigh muscle): 0.012 ppm
